The source of these data is patent US20140259191A1, “FISH ANESTHETIC AND METHOD” (AQUA-MOR TECHNOLOGIES LTD., priority 2011, published 2014).

The data set relates to common carp. The data set can be described thus: Five-hour sedation of common carp, linalool versus 2-phenoxyethanol. The following applies: linalool 40 ppm, 2-PE 200 ppm; for Number of fish exhibiting loss of upright position: 26° C. In kind it is in vivo. Here is the method:
2-Phenoxyethanol (2-PE) is used to sedate fish in vaccinations procedures for relatively long periods of time (3 hours). 35 common carp were placed in each of two 60-liter tanks containing water at 26° C. Into one tank was added linalool (in a formulation as described in Example 28) to a concentration of 40 ppm; into the other tank was added 2-PE to a concentration of 200 ppm. Sedation of fish was determined by observation of loss of upright position, operculum movement and response to stimulus (handling). Total exposure time was five hours, at the end of which the fish were transferred 60-liter recovery tanks containing untreated water.

For `OCCOc1ccccc1` [2-phenoxyethanol, 2-Phenoxyethanol, reference compound], the “Number of fish exhibiting loss of upright position” value reads like this: (35 common carp per tank, time 10:30 (start), aeration) 0; (35 common carp per tank, time 11:00 (start 10:30), no aeration) 1; (35 common carp per tank, time 11:40 (start 10:30), no aeration) 2; (35 common carp per tank, time 12:35 (start 10:30), no aeration) 2; (35 common carp per tank, time 13:35 (start 10:30), no aeration) 2; (35 common carp per tank, time 14:30 (start 10:30), aeration) 2. Where the note is “35 common carp per tank, time 15:30 (start 10:30), aeration”, the “Number of fish exhibiting loss of upright position” value was “None”. Also, the “survival at transfer to recovery tank” value (35 common carp per tank, after five hours exposure) is listed as “All alive”. Besides, under “common carp”, the “reflex response over the 5 hours of exposure” value is “reduced substantially from the beginning of the trial and increased with the passage of time until the end of the trial”. Moreover, the “sedative effect between 3 and 5 hours of exposure” value (common carp) is reported as “reduced”. Further, the “recovery after placement in a recovery tank” value (common carp, after five hours exposure) was “recovered quickly in few minutes and did not show signs of stress”. Further, where the note is “common carp, sedation levels enabled handling”, the “response to external stimulation during the first 3 hours” value is listed as “did not respond to external stimulation”.
